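Values below derive from 48-hour exposures of cells grown in 96-well plates, with endpoints linearly interpolated between the two concentrations bracketing the appropriate inhibition level. TGI: total growth inhibition.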

The first test concerns SK-MEL-5 melanoma. Kind of test: inhibition of tumour cell growth, NCI panel, 48 h.
`CC(C)CSCC1OC(n2cnc3c(N)nccc32)C(O)C1O` (centres undefined) had a TGI of over 100 µM.

A further test concerns SF-268 CNS. The test is described as follows: inhibition of tumour cell growth, NCI panel, 48 h.
`ClC1=C(Cl)C(Cl)(Cl)SS1`: the TGI is over 10 µM.

Compound `O=S(/C=C/C=C/S(=O)(=O)c1ccccc1)c1ccccc1` (centres undefined) gave a TGI of over 9.08 µM.

On to `CC(C)CSCC1OC(n2cnc3c(N)nccc32)C(O)C1O` (centres undefined), for which the TGI was over 100 µM.

Another test concerns HS 578T breast. Kind of test: inhibition of tumour cell growth, NCI panel, 48 h.
In the case of `ClC1=C(Cl)C(Cl)(Cl)SS1`, the TGI was over 10 µM.

`O=S(/C=C/C=C/S(=O)(=O)c1ccccc1)c1ccccc1` (centres undefined): the TGI is over 10 µM.

As to `CC(C)CSCC1OC(n2cnc3c(N)nccc32)C(O)C1O` (centres undefined), the TGI was over 100 µM.

Another test concerns SF-539 CNS. The test is described as follows: inhibition of tumour cell growth, NCI panel, 48 h.
Take `ClC1=C(Cl)C(Cl)(Cl)SS1`: the TGI is over 10 µM.

`O=S(/C=C/C=C/S(=O)(=O)c1ccccc1)c1ccccc1` (centres undefined): the TGI was over 10 µM.

Compound `CC(C)CSCC1OC(n2cnc3c(N)nccc32)C(O)C1O` (centres undefined) registered a TGI of over 100 µM.

The subject of the next test is EKVX NSCLC. Kind of test: inhibition of tumour cell growth, NCI panel, 48 h.
As for `ClC1=C(Cl)C(Cl)(Cl)SS1`, the TGI is over 10 µM.

`O=S(/C=C/C=C/S(=O)(=O)c1ccccc1)c1ccccc1` (centres undefined) gave a TGI of over 10 µM.

In the case of `CC(C)CSCC1OC(n2cnc3c(N)nccc32)C(O)C1O` (centres undefined), the TGI was over 100 µM.

In the next test the test system is UACC-62 melanoma. Kind of test: inhibition of tumour cell growth, NCI panel, 48 h.
With `ClC1=C(Cl)C(Cl)(Cl)SS1`, the TGI was over 10 µM.

Turning to `O=S(/C=C/C=C/S(=O)(=O)c1ccccc1)c1ccccc1` (centres undefined), the TGI was over 7.77 µM.

In turn, `CC(C)CSCC1OC(n2cnc3c(N)nccc32)C(O)C1O` (centres undefined) displayed a TGI of over 100 µM.

In the next test the test system is SF-295 CNS. Kind of test: inhibition of tumour cell growth, NCI panel, 48 h.
In turn, `ClC1=C(Cl)C(Cl)(Cl)SS1` displayed a TGI of over 10 µM.

In turn, `O=S(/C=C/C=C/S(=O)(=O)c1ccccc1)c1ccccc1` (centres undefined) registered a TGI of over 10 µM.

The compound `CC(C)CSCC1OC(n2cnc3c(N)nccc32)C(O)C1O` (centres undefined) yielded a TGI of over 100 µM.

The test system of another test is A498 renal. Kind of test: inhibition of tumour cell growth, NCI panel, 48 h.
Consider `ClC1=C(Cl)C(Cl)(Cl)SS1`, for which the TGI is over 10 µM.

In turn, `O=S(/C=C/C=C/S(=O)(=O)c1ccccc1)c1ccccc1` (centres undefined) registered a TGI of over 10 µM.

Consider `CC(C)CSCC1OC(n2cnc3c(N)nccc32)C(O)C1O` (centres undefined), for which the TGI was over 100 µM.

The subject of the next test is PC-3 prostate. Kind of test: inhibition of tumour cell growth, NCI panel, 48 h.
With `ClC1=C(Cl)C(Cl)(Cl)SS1`, the TGI was over 10 µM.

In turn, `O=S(/C=C/C=C/S(=O)(=O)c1ccccc1)c1ccccc1` (centres undefined) displayed a TGI of over 10 µM.

`CC(C)CSCC1OC(n2cnc3c(N)nccc32)C(O)C1O` (centres undefined) registered a TGI of over 100 µM.

A further test deals with DU-145 prostate. The test is described as follows: inhibition of tumour cell growth, NCI panel, 48 h.
Regarding `ClC1=C(Cl)C(Cl)(Cl)SS1`, the TGI was over 10 µM.

`O=S(/C=C/C=C/S(=O)(=O)c1ccccc1)c1ccccc1` (centres undefined) yielded a TGI of over 7 µM.

`CC(C)CSCC1OC(n2cnc3c(N)nccc32)C(O)C1O` (centres undefined) came in with a TGI of over 100 µM.

For a further test, the system named is OVCAR-3 ovarian. The test is described as follows: inhibition of tumour cell growth, NCI panel, 48 h.
Consider `ClC1=C(Cl)C(Cl)(Cl)SS1`, for which the TGI was over 9.5 µM.

Take `O=S(/C=C/C=C/S(=O)(=O)c1ccccc1)c1ccccc1` (centres undefined): the TGI is 3.44 µM.

For the compound `CC(C)CSCC1OC(n2cnc3c(N)nccc32)C(O)C1O` (centres undefined), the TGI is over 100 µM.

The next test concerns KM12 colon. The test is described as follows: inhibition of tumour cell growth, NCI panel, 48 h.
In turn, `ClC1=C(Cl)C(Cl)(Cl)SS1` registered a TGI of over 10 µM.

Consider `O=S(/C=C/C=C/S(=O)(=O)c1ccccc1)c1ccccc1` (centres undefined), for which the TGI is over 4.88 µM.

`CC(C)CSCC1OC(n2cnc3c(N)nccc32)C(O)C1O` (centres undefined) returned a TGI of over 100 µM.

In another test the test system is RPMI-8226 leukemia. The test is described as follows: inhibition of tumour cell growth, NCI panel, 48 h.
`ClC1=C(Cl)C(Cl)(Cl)SS1` returned a TGI of 6.73 µM.

The compound `O=S(/C=C/C=C/S(=O)(=O)c1ccccc1)c1ccccc1` (centres undefined) gave a TGI of 3.06 µM.

Consider `CC(C)CSCC1OC(n2cnc3c(N)nccc32)C(O)C1O` (centres undefined), for which the TGI was over 100 µM.

A further test has as its system CCRF-CEM leukemia. The test is described as follows: inhibition of tumour cell growth, NCI panel, 48 h.
The compound `ClC1=C(Cl)C(Cl)(Cl)SS1` showed a TGI of over 8 µM.

The compound `O=S(/C=C/C=C/S(=O)(=O)c1ccccc1)c1ccccc1` (centres undefined) registered a TGI of 2.27 µM.

Take `CC(C)CSCC1OC(n2cnc3c(N)nccc32)C(O)C1O` (centres undefined): the TGI is over 100 µM.

In another test the test system is MDA-MB-435. The test is described as follows: inhibition of tumour cell growth, NCI panel, 48 h.
With `ClC1=C(Cl)C(Cl)(Cl)SS1`, the TGI is over 10 µM.

In the case of `O=S(/C=C/C=C/S(=O)(=O)c1ccccc1)c1ccccc1` (centres undefined), the TGI was 5.96 µM.

In turn, `CC(C)CSCC1OC(n2cnc3c(N)nccc32)C(O)C1O` (centres undefined) came in with a TGI of over 100 µM.

A further test deals with RXF 393 renal. Kind of test: inhibition of tumour cell growth, NCI panel, 48 h.
With `ClC1=C(Cl)C(Cl)(Cl)SS1`, the TGI was over 10 µM.
